The source of these data is PubChem BioAssay (NCI).

Common to all, as to assay: inhibition of tumour cell growth, NCI panel, 48 h
The test system of assay [1] is UO-31 renal.
Assay [2] relates to RXF 393 renal.
For assay [3], the system named is 786-0 renal.
Assay [4] relates to DU-145 prostate.
Assay [5] deals with NCI-H522 lung.
For assay [6], the system named is M14 melanoma.
Assay [7] deals with SW-620 colon.
Assay [8] relates to KM12 colon.
The subject of assay [9] is HCT-116 colon.
In assay [10] the test system is TK-10 renal.
Assay [11] relates to OVCAR-3 ovarian.
Assay [12] has as its system SNB-19 CNS.
Assay [13] concerns LOX IMVI melanoma.
Assay [14] concerns UACC-62 melanoma.
Assay [15] has as its system HT29 colon.
Assay [16] concerns HOP-62 NSCLC.
Assay [17] has as its system MDA-N.
The test system of assay [18] is NCI-H226 lung.
In assay [19] the test system is MDA-MB-231 breast.

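96-well plates; 48 h exposure; 5 concentrations. Endpoints by linear interpolation between flanking doses. Not reached: highest tested concentration assigned. At the TGI there is no net growth.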 Where only a bound is given, the exact number is not on record here.

Take `CCCNC(=O)Cn1c(C)cc2ccccc21`: the TGI in [1], in assay [2], in assay [3], in assay [4], in [5] and in assay [6] was above 100 µM each time. Besides, the TGI in assay [7], in assay [8], in assay [9], in assay [10], in assay [11] and in assay [12] was above 100 µM each time. The TGI in assay [13], in assay [14], in assay [15], in [16], in assay [17] and in assay [18] was above 100 µM throughout.

As to `COC(=O)CCc1ccc2c(c1)CC1(Cc3ccccc3C1)C2`, the TGI in assay [1], in assay [2], in assay [3], in assay [5], in assay [6] and in [8] was above 100 µM each time. For the same compound, the TGI in [9], in assay [19], in [10], in [11], in assay [13] and in [14] was above 100 µM each time. Besides, the TGI in assay [15], in assay [16], in assay [17] and in assay [18] was above 100 µM throughout.

Regarding `c1ccc2sc(C3(N4CCC5(CC4)OCCO5)CCCCC3)cc2c1`, the TGI in [1], in assay [2], in assay [3], in assay [4], in assay [5] and in assay [6] was above 100 µM in each case. Besides, the TGI in assay [7], in assay [8], in [9], in [10], in assay [11] and in assay [12] was above 100 µM each time. The TGI in assay [13] is above 100 µM; in assay [14] it was above 100 µM; in [15] it was 86.4 µM; in assay [16] it was above 100 µM; in [17] it was above 100 µM; in [18] it was above 100 µM.

As for `Cc1cn([C@H]2C[C@@H]3[C@@H](COC(CCl)N3O)O2)c(=O)[nH]c1=O` (some centres undefined), the TGI in assay [1], in [2], in [3], in [4], in [5] and in [6] was above 100 µM throughout. The TGI in [7], in assay [8], in assay [9], in assay [10], in assay [11] and in [12] was above 100 µM throughout. Besides, the TGI in assay [13], in assay [14], in assay [15], in assay [16], in assay [17] and in [18] was above 100 µM in each case.

For the compound `CC(C)[Si](OC1=C(c2ccccc2)C(NC(=O)/C=C/c2ccc([N+](=O)[O-])cc2)CCC1)(C(C)C)C(C)C` (centres undefined), the TGI in [1], in [2], in assay [3], in [4], in [5] and in assay [6] was above 100 µM throughout. Besides, the TGI in [7], in assay [8], in assay [9], in [19], in [10] and in assay [11] was above 100 µM in each case. Moreover, the TGI in [12], in assay [13], in assay [14], in [15], in assay [16] and in assay [18] was above 100 µM in each case.

As for `CS/C(=N\S(=O)(=O)c1cc(C)c(Cl)cc1Cl)NNc1cnc2ccccc2n1`, the TGI in [1], in [2], in assay [3], in assay [4], in assay [5] and in [6] was above 100 µM in each case. In addition, the TGI in assay [7], in assay [8], in assay [9], in assay [19], in [10] and in assay [11] was above 100 µM throughout. The TGI in assay [12], in assay [13], in assay [14], in assay [15], in assay [16] and in [18] was above 100 µM each time.

On to `CN(C)C1(N(C)C)Oc2c(c(=O)n(C)c(=O)n2C)C(c2ccccc2Br)C1(F)F` (centres undefined), for which the TGI in [1], in assay [2], in [3], in assay [4], in assay [6] and in [7] was above 100 µM in each case. Besides, the TGI in [8], in assay [9], in [19], in [10], in [11] and in assay [12] was above 100 µM each time. The TGI in assay [13], in assay [14], in assay [16] and in [18] was above 100 µM in each case.

With `Cc1cc(O)c(C=NC(=S)c2ccccc2)c(=O)o1`, the TGI in assay [1], in [3], in assay [4], in assay [6], in assay [7] and in assay [8] was above 100 µM in each case. In addition, the TGI in [9], in [19], in assay [10], in [11], in assay [12] and in assay [13] was above 100 µM throughout. The TGI in [14], in assay [15], in [16], in assay [17] and in assay [18] was above 100 µM in each case.
